In patent US9101769B2, “High density epidural stimulation for facilitation of locomotion, posture, voluntary movement, and recovery of autonomic, sexual, vasomotor, and cognitive function after neurological injury” (The Regents of the University of California, priority 2011, dated 2015):

Columns and labels:
[1] = test system: rat with complete mid-thoracic spinal cord transection; test: Epidural stimulation coupled with drug therapy, locomotor behavior after complete spinal cord transection (FIG. 1); assay type: in vivo
Procedure: FIG. 1 summarizes recent experiments in rats that were carried out to assess the effectiveness of epidural stimulation coupled with combined drug therapy in the treatment of complete spinal cord injuries. The combination of quipazine and 8-0HDPAT with simultaneous epidural stimulation at spinal sites L2 and S1 results in robust coordinated stepping as early as one week after a complete spinal cord transection. Locomotor behavior observed from a typical rat before the injury and one week after a complete mid-thoracic spinal cord transection. The amount of body weight support provided to the rat is shown in red. One week post-injury, no spontaneous stepping activity is observed. […] Sol, soleus; TA, tibialis anterior; MTP, metatarsal-phalangeal.
FIG. 1 summarizes experiments in rats that were carried out to assess the effectiveness of epidural stimulation coupled with combined drug therapy in acute treatment of complete spinal cord injury.

[2] = test system: stepping in animals; test: Pharmacological facilitation of stepping, optimal concentration of illustrative agents (Table 1); assay type: in vivo
Procedure: In certain embodiments, the methods described herein are used in conjunction with various pharmacological agents. […] These agents can be used in combination with epidural stimulation and physical therapy as described above.
In certain embodiments, the drugs are administered systemically, while in other embodiments, the drugs are administered locally, e.g., to particular regions of the spinal cord. Drugs that modulate the excitability of the spinal neuromotor networks are combinations of noradrenergic, serotonergic, GABAergic, and glycinergic receptor agonists and antagonists. Illustrative pharmacological agents include, but are not limited to agonists and antagonists to one or more combinations of serotonergic: 5-HT1A, 5-HT2A, 5-HT3, and 5HT7 receptors; to noradrenergic alpha1 and 2 receptors; and to dopaminergic D1 and D2 receptors (see, e.g., Table 1).

[3] = one week after complete mid-thoracic spinal cord transection, drug administration without epidural stimulation
[4] = one week post-injury, epidural stimulation at L2 plus S1 with quipazine plus 8-OHDPAT together
[5] = one week post-injury, epidural stimulation simultaneously at L2 plus S1 in combination with either quipazine or 8-OHDPAT

`CCCN(CCC)C1CCc2cccc(O)c2C1` (stereo not drawn) [8-OHDPAT] was tested, and the “Locomotor behavior (stepping)” value [1, 3] was “erratic movements”, the “Locomotor behavior (stepping)” value [1, 4] was “coordinated, plantar stepping with features resembling those observed pre-lesion” and the “Locomotor behavior (stepping)” value [1, 5] was “enables plantar stepping”. For the same compound, the “Optimal Concentration” value ([2]; route S.C.) was 0.05 mg/kg.
`Cc1nccn1CC1CCc2c(c3ccccc3n2C)C1=O` (stereo not drawn) [Ondanesetron] was tested, and the “Optimal Concentration” value ([2]; route I.P.) was 3 mg/kg.
With `c1ccc2nc(N3CCNCC3)ccc2c1` [Quipazine] the “Locomotor behavior (stepping)” value [1, 3] was “erratic movements”, the “Locomotor behavior (stepping)” value [1, 4] was “coordinated, plantar stepping with features resembling those observed pre-lesion” and the “Locomotor behavior (stepping)” value [1, 5] was “enables plantar stepping”.
In the case of `CC1CCN(CC[C@H]2CCCN2S(=O)(=O)c2cccc(O)c2)CC1` [SB 269970], the “Optimal Concentration” value ([2]; route I.P.) is reported as 7 mg/kg.
For `Oc1cc2c(c(Cl)c1O)CCNCC2c1ccccc1` (stereo not drawn) [SKF-81297], the “Optimal Concentration” value ([2]; route I.P.) was 0.2 mg/kg.
For `Cl.NC1CCN(c2cccc(Cl)n2)CC1` [SR 57227A], the “Optimal Concentration” value ([2]; route I.P.) was 1.5 mg/kg.
`COc1ccccc1N1CCN(CCN(C(=O)C2CCCCC2)c2ccccn2)CC1` [Way 100.635] was tested, and the “Optimal Concentration” value ([2]; route I.P.) was 0.5 mg/kg.
